Measurements as given in patent US7807678B2, “Peptidomimetics of biologically active metallopeptides” (Palatin Technologies, Inc., priority 2001, dated 2010).
Where two headings read alike, the source gives them in different places. Non-standard residues stand in square brackets, D forms with d. Residues, ends and D or L forms follow the SMILES beside them. *: point of attachment. Hyp = O=C(O)[CH]1C[CH](O)CN1; Nle = CCCC[CH](N)C(=O)O; NH(CH2)3NH2 = NCCCN*; Bn = c1ccc(C*)cc1

Columns and labels:
[1] = target: T1, MC1-R (B-16 mouse melanoma cells) (Mus musculus, UniProt Q01727); experiment: Competitive inhibition binding assay, 125I-NDP-α-MSH, MC1-R; details: for Inhibition at 1 μM MC1-R: 1 μM compound, inhibition of 125I-NDP-α-MSH binding, mean of triplicates, results less than 0% reported as 0%
T1 construct: B-16 mouse melanoma cells (containing MC1-R); endogenous in cells; host or cells: B-16 mouse melanoma cells
T1 sequence (Q01727 whole entry): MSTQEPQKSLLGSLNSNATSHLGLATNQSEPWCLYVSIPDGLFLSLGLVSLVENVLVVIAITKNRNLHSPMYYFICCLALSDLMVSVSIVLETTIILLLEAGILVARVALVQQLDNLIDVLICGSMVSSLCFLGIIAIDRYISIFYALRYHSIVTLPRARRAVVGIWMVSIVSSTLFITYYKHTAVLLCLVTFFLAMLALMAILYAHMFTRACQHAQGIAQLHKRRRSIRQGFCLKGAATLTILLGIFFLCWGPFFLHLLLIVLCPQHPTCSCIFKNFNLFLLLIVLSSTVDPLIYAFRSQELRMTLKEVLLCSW
In short: (§1)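 Membranes from hMC3-R, hMC4-R or hMC5-R cells, or B-16 mouse melanoma cells (MC1-R), were incubated 90 min at room temperature with 0.4 nM 125I-NDP-α-MSH in HEPES pH 7.2 with Mg2+/Ca2+/K+, and test compound generally at 1 μM. Filter-bound radioactivity was gamma counted. Specific binding was defined with 1 μM α-MSH; triplicate means.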

[2] = target: T1, MC1-R (B-16 mouse melanoma cells); experiment: Ki determination by the method of Example 4, MC1-R; assay type: binding
Procedure: (§2) The Ki (nM) of certain peptidomimetics were determined, as was the agonist/antagonist status with respect to MC4-R, Functional evaluation of compounds at melanocortin receptors was performed by measuring the accumulation of intracellular cAMP in HEK-293 cells expressing MC3-R, MC4-R or MC5-R, and in B-16 mouse melanoma cells (containing MC1-R). Antagonistic activity was determined by measuring the inhibition of α-MSH-induced cAMP levels following exposure to the compounds. Cells, suspended in Earle's Balanced Salt Solution containing 10 mM HEPES, pH 7.5, 5 mM MgCl2, 1 mM glutamine, 0.1% albumin and 0.6 mM 3-isobutyl-1-methyl-xanthine, a phosphodiesterase inhibitor, were plated in 96 well plates at a density of 0.5×10^5 cells per well. Cells were incubated with the test compounds in the presence or absence of α-MSH for 1 hour at 37° C. cAMP levels were measured by EIA (Amersham) in the cell lysates. Data analysis and EC50 values were determined using nonlinear regression analysis with Prism Graph-Pad software.

MC3-R [3] = target: T2, MC3-R (Homo sapiens, UniProt P41968); experiment: Competitive inhibition binding assay, 125I-NDP-α-MSH, MC3-R; set-up: expressed in transfected cells; details: for Inhibition at 1 μM MC3-R: 1 μM compound, inhibition of 125I-NDP-α-MSH binding, mean of triplicates, results less than 0% reported as 0%
T2 sequence (P41968 whole entry): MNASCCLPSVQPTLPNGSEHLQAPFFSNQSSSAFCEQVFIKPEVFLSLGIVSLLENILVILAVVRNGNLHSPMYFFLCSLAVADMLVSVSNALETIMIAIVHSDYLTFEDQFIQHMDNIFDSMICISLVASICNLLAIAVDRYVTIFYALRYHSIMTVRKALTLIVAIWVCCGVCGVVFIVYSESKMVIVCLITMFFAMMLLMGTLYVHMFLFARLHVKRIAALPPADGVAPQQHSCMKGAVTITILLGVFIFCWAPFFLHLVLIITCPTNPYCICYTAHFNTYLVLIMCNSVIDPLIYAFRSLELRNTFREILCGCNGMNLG
In short: as §1

MC4-R [4] = target: T3, MC4-R (Homo sapiens, UniProt P32245); experiment: Competitive inhibition binding assay, 125I-NDP-α-MSH, MC4-R; set-up: expressed in transfected cells; details: for Inhibition at 1 μM MC4-R: 1 μM compound, inhibition of 125I-NDP-α-MSH binding, mean of triplicates, results less than 0% reported as 0%
T3 sequence (P32245 whole entry): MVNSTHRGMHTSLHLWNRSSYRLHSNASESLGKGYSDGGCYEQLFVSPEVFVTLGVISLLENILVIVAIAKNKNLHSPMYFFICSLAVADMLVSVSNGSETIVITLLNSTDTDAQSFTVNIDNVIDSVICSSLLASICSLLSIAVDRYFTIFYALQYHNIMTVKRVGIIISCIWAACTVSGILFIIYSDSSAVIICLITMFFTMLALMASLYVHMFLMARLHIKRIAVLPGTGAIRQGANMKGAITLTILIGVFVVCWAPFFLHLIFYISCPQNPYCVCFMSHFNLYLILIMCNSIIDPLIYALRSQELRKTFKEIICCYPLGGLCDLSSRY
In short: as §1

MC5-R [5] = target: T4, MC5-R (Homo sapiens, UniProt P33032); experiment: Competitive inhibition binding assay, 125I-NDP-α-MSH, MC5-R; set-up: expressed in transfected cells; details: for Inhibition at 1 μM MC5-R: 1 μM compound, inhibition of 125I-NDP-α-MSH binding, mean of triplicates, results less than 0% reported as 0%
T4 sequence (P33032 whole entry): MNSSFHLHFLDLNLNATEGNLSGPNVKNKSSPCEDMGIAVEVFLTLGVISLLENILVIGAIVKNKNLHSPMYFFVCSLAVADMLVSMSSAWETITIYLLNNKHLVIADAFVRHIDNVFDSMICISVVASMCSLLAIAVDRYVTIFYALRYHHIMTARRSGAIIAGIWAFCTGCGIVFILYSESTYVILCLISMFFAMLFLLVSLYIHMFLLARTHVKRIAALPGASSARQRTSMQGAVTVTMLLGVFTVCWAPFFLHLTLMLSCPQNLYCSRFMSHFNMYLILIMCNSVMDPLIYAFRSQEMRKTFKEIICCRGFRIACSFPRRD
In short: as §1

MC3-R [6] = target: T2, MC3-R; experiment: Ki determination by the method of Example 4, MC3-R; assay type: binding; set-up: expressed in transfected cells; host or cells: HEK-293
Procedure: as §2

MC4-R [7] = target: T3, MC4-R; experiment: Ki determination by the method of Example 4, MC4-R; assay type: binding; set-up: expressed in transfected cells; host or cells: HEK-293
Procedure: as §2

MC5-R [8] = target: T4, MC5-R; experiment: Ki determination by the method of Example 4, MC5-R; assay type: binding; set-up: expressed in transfected cells; host or cells: HEK-293
Procedure: as §2

[9] = target: T1, MC1-R (B-16 mouse melanoma cells); experiment: cAMP assay for agonist/antagonist status, MC1-R; assay type: cell-based
Procedure: as §2

MC4-R (HEK-293 cells) = target: T5, MC4-R (HEK-293 cells) (Homo sapiens, UniProt P32245); experiment: cAMP assay for agonist/antagonist status, MC4-R; assay type: cell-based
T5 construct: expressed in transfected cells; host or cells: HEK-293
T5 sequence (P32245 whole entry): as the sequence (P32245 whole entry) above
Procedure: as §2

MC5-R (HEK-293 cells) = target: T6, MC5-R (HEK-293 cells) (Homo sapiens, UniProt P33032); experiment: cAMP assay for agonist/antagonist status, MC5-R; assay type: cell-based
T6 construct: expressed in transfected cells; host or cells: HEK-293
T6 sequence (P33032 whole entry): as the sequence (P33032 whole entry) above
Procedure: as §2

[10] = bound in μM, read-out: Ki MC1-R
[11] = bound in μM, read-out: Ki MC3-R
[12] = bound in μM, read-out: Ki MC5-R
[13] = bound in μM, read-out: Ki MC4-R

SMILES	Ki ([2]; read-out: Ki (nM) MC1-R) [nM]	Ki (MC4-R [7]; read-out: Ki (nM) MC4-R) [nM]	Ki (MC5-R [8]; read-out: Ki (nM) MC5-R) [nM]	Ki [2, 10] [nM]	Ki (MC3-R [6]; [11]) [nM]	Ki (MC5-R [8]; [12]) [nM]	Ki (MC4-R [7]; [13]) [nM]	also measured
N=C(N)NCCCC1C(=O)N(CCc2c[nH]c3ccccc23)CCN1C(=O)C(Cc1ccc(Cl)cc1)NC(=O)C1Cc2ccccc2CN1 (stereo not drawn) [Example 14]	3	2	52	–	–	–	–	inhibition at 1 µM [1]: 96%; inhibition at 1 µM (MC3-R [3]): 88%; inhibition at 1 µM (MC4-R [4]): 99%; inhibition at 1 µM (MC5-R [5]): 89%; Ki (MC3-R [6]; read-out: Ki (nM) MC3-R): 77 nM
N=C(N)NCCCC1C(=O)N(CCc2c[nH]c3ccccc23)CCN1C(=O)C(Cc1ccc(Cl)cc1)NC(=O)C(COCc1ccccc1)NC(=O)CCCCCCN (stereo not drawn) [Example 17]	4	2	32	–	–	–	–	inhibition at 1 µM [1]: 96%; inhibition at 1 µM (MC3-R [3]): 97%; inhibition at 1 µM (MC4-R [4]): 99%; inhibition at 1 µM (MC5-R [5]): 94%; Ki (MC3-R [6]; read-out: Ki (nM) MC3-R): 17 nM
NCCCC[C@H]1C(=O)N(CCc2ccc3ccccc3c2)CCN1C(=O)[C@@H](Cc1ccc(Cl)cc1Cl)NC(=O)[C@@H]1CC[C@H](c2ccccc2)N1 [Example 26]	–	50	789	> 1000	> 1000	–	–	–
N=C(N)NCCCC1C(=O)N2C(COc3ccc4ccccc4c3)CCC2N1C(=O)C(Cc1ccccc1)NC(=O)C(N)Cc1cnc[nH]1 (stereo not drawn) [Example 97]	1	226	–	–	> 1000	> 1000	–	–
N=C(N)NCCC[C@H]1C(=O)N2C(CC[C@@H]2COc2ccc3ccccc3c2)N1C(=O)[C@@H](Cc1ccc(Cl)cc1Cl)NC(=O)[C@@H]1Cc2ccccc2CN1 (stereo partly drawn) [Example 112]	111	1	26	–	–	–	–	Inhibition at 1 μM MC1-R [1]: 75%; agonist/antagonist status as to MC1-R [9]: inactive; agonist/antagonist status as to MC4-R (MC4-R (HEK-293 cells)): antagonist; agonist/antagonist status as to MC5-R (MC5-R (HEK-293 cells)): antagonist; Inhibition at 1 μM MC3-R (MC3-R [3]): 88%; Inhibition at 1 μM MC4-R (MC4-R [4]): 100%; Inhibition at 1 μM MC5-R (MC5-R [5]): 96%; Ki (MC3-R [6]; read-out: Ki (nM) MC3-R): 42 nM
N=C(N)NCCC[C@H]1C(=O)N2C(CC[C@@H]2COc2ccc3ccccc3c2)N1C(=O)[C@@H](Cc1ccc(Cl)cc1Cl)NC(=O)[C@@H]1CC[C@H](c2ccccc2)N1 (stereo partly drawn) [Example 115]	–	12	99	> 1000	> 1000	–	–	inhibition at 1 µM (MC3-R [3]): 43%; inhibition at 1 µM (MC4-R [4]): 97%; inhibition at 1 µM (MC5-R [5]): 86%
NCCCNC(=O)[C@@H]1C[C@@H](OCc2ccccc2)CN1C(=O)[C@@H](Cc1ccc(Cl)cc1)NC(=O)[C@H]1Cc2ccccc2CN1 [Example 146]	–	–	–	> 1000	> 1000	> 1000	> 1000	–
NCCCNC(=O)C1CC(OCc2ccccc2)CN1C(=O)C(Cc1ccccc1)NC(=O)C1Cc2ccccc2CN1 (stereo not drawn) [Example 147]	–	–	–	> 1000	> 1000	> 1000	> 1000	–
NCCCNC(=O)[C@@H]1C[C@@H](OCc2ccccc2)CN1C(=O)[C@@H](Cc1ccccc1)NC(=O)[C@H]1Cc2ccccc2CN1 [Example 148]	–	–	–	> 1000	> 1000	> 1000	> 1000	–

Further lines, with some results ahead:

Ki ([2]; read-out: Ki (nM) MC1-R) [nM]	Ki (MC4-R [7]; read-out: Ki (nM) MC4-R) [nM]	Ki (MC5-R [8]; read-out: Ki (nM) MC5-R) [nM]	Ki [2, 10] [nM]	Ki (MC3-R [6]; [11]) [nM]	Ki (MC5-R [8]; [12]) [nM]	Ki (MC4-R [7]; [13]) [nM]	SMILES	also measured
–	4	104	> 1000	> 1000	–	–	NC(COCc1ccccc1)C(=O)NC(Cc1ccc(Cl)cc1Cl)C(=O)N1CCN(CCc2ccc3ccccc3c2)C(=O)C1CCCNC1=NCCN1 (stereo not drawn) [Example 48]	inhibition at 1 µM [1]: 63%; inhibition at 1 µM (MC3-R [3]): 60%; inhibition at 1 µM (MC4-R [4]): 99%; inhibition at 1 µM (MC5-R [5]): 75%
244	42	284	–	–	–	–	N=C(N)NCCC[C@H]1C(=O)N2C(CC[C@@H]2COc2ccc3ccccc3c2)N1C(=O)[C@@H](Cc1ccccc1Cl)NC(=O)[C@@H]1C[C@@H](OCc2ccccc2)CN1 (stereo partly drawn) [Example 100]	Inhibition at 1 μM MC1-R [1]: 54%; agonist/antagonist status as to MC1-R [9]: agonist; agonist/antagonist status as to MC4-R (MC4-R (HEK-293 cells)): agonist; Inhibition at 1 μM MC3-R (MC3-R [3]): 40%; Inhibition at 1 μM MC4-R (MC4-R [4]): 95%; Inhibition at 1 μM MC5-R (MC5-R [5]): 93%; Ki (MC3-R [6]; read-out: Ki (nM) MC3-R): 854 nM
–	–	–	–	> 1000	> 1000	> 1000	CCCCC(N)C(=O)NC(C)C(=O)NC(Cc1cnc[nH]1)C(=O)NC(Cc1ccccc1)C(=O)N1CC(OCc2ccccc2)CC1C(=O)NCCCN (stereo not drawn) [Example 134] (H-[Nle]AHF[Hyp](Bn)-{NH(CH2)3NH2}; configuration not given here)	–
–	–	–	> 1000	> 1000	–	> 1000	NCCCNC(=O)C1CC(OCc2ccccc2)CN1C(=O)C(Cc1ccc(Cl)cc1)NC(=O)C1Cc2ccccc2CN1 (stereo not drawn) [Example 145]	–
8	–	–	–	> 1000	> 1000	> 1000	[2H]N[C@@H](Cc1cnc[nH]1)C(=O)N[C@@H](Cc1ccccc1)C(=O)N1C2CC[C@H](COc3ccc4ccccc4c3)N2C(=O)[C@@H]1CCCCN (stereo partly drawn) [Example 180]	agonist/antagonist status as to MC1-R [9]: agonist; agonist/antagonist status as to MC1-R ([9]; listed as Compound 2): potent MCR-1 agonist
